Key:
[1] = target: T1, TREK-2 (expressed in HEK293) (Mus musculus, UniProt Q8BUW1); experiment: patch clamp of transfected HEK293 cells, inhibition of riluzole-evoked current
T1 construct: gene Kcnk10
T1 sequence (Q8BUW1 1-535): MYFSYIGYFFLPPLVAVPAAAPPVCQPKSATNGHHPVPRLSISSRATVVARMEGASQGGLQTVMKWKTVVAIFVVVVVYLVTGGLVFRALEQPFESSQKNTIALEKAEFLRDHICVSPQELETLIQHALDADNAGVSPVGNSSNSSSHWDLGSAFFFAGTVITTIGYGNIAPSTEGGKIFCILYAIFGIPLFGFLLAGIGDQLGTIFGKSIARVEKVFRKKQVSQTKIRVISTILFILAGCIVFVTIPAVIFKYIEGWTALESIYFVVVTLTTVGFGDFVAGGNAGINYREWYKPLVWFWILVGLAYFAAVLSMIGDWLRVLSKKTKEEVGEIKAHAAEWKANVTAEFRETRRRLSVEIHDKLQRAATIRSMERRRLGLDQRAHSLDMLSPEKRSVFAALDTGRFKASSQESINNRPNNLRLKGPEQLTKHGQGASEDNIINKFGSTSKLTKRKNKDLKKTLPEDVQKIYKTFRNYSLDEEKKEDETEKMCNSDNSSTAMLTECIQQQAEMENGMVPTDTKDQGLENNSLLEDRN

[2] = target: T2, TREK-2 (native riluzole-activated current IRIL in mouse SCG neurons) (Mus musculus, UniProt Q8BUW1); experiment: perforated-patch whole-cell voltage clamp, inhibition of riluzole-activated current; type: cell-based; conditions: riluzole 300 µM activator, TEA 15 mM, TTX 0.5 µM, CsCl 1 mM, -30 mV, room temperature, Hill coefficient 0.78
T2 construct: gene Kcnk10; TREK-1 and TRAAK are also expressed at lower level

| Structure (SMILES) | inhibition at 1 µM ([1]; HEK293, read-out: % inhibition at 1 μM) | inhibition at 0.3 µM ([1]; HEK293, read-out: % inhibition at 300 nM) | IC50 [2] |
| --- | --- | --- | --- |
| O=C1c2ccccc2C(Cc2ccncc2)(Cc2ccncc2)c2ccccc21 [XE991] | 73.8 ± 1.93% | – | – |
| O=C1N(c2ccccc2)c2ccccc2C1(Cc1ccncc1)Cc1ccncc1 [linopirdine] | – | 65.5 ± 5.93% | 310 ± 60 nM |

Reference: paper PMC7461115, “Contribution of KCNQ and TREK Channels to the Resting Membrane Potential in Sympathetic Neurons at Physiological Temperature” (International Journal of Molecular Sciences, 2020)
